Measured values as given in patent US20050124021A1 (priority 2000, published 2005).
“Also recorded” adds a separate entry of the source.

Experiments:
[1] = biological target: recombinant MshB (Rv1170) (Mycobacterium tuberculosis, UniProt P9WJN3); assay type: biochemical, M. tuberculosis
M. smegmatis mutant 49 = assay type: cell-based
[2] = biological target: T1, M. tuberculosis MshB (Rv1170) (Mycobacterium tuberculosis, UniProt P9WJN3); assay type: biochemical; conditions: for Deacetylase Specific Activity: pH 7.4
M. smegmatis strain 49 [3] = test system: M. smegmatis strain 49
M. smegmatis strain 49 [4] = conditions: read-out: H2O2 IC50; cited from earlier work
M. smegmatis mc^2155 [5] = conditions: read-out: H2O2 IC50
[6] = test system: M. smegmatis strain 49::H37Rv A18; conditions: read-out: H2O2 IC50; cited from earlier work
[7] = biological target: T1, M. tuberculosis MshB (Rv1170); assay type: biochemical
His-tagged MshB [8] = biological target: T2, His-tagged MshB (Mycobacterium tuberculosis, UniProt P9WJN3); assay type: biochemical, M. tuberculosis
His-tagged MshB [9] = biological target: T2, His-tagged MshB; assay type: biochemical, M. tuberculosis; remark: listed apart in the source
M. smegmatis mutant TN3 = assay type: cell-based
M. smegmatis mc^2155 [10] = assay type: cell-based
[11] = test system: M. smegmatis chemical mutant 164; assay type: cell-based

T1 sequence (P9WJN3 whole entry, looked up): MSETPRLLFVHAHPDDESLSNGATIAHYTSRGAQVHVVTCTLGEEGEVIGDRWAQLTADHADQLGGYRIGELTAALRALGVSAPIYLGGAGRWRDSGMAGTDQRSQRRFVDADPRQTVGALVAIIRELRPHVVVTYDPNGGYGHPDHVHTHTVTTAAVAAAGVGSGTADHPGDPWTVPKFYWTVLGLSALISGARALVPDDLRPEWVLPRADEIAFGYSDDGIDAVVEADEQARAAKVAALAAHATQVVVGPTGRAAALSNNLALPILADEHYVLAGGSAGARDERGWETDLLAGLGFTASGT
T2 sequence (P9WJN3 whole entry, looked up): as above
recombinant MshB (Rv1170), sequence (P9WJN3 whole entry, looked up): as above

## c1cnc2c(c1)ccc1cccnc12 [1,10-phenanthroline]
[1]
  Inhibition of the deacetylase reaction: substantially inhibited; also recorded: completely inhibited

## CC(=O)N[C@H]1C(O)O[C@H](CO)[C@@H](O)[C@@H]1O (stereo partly shown) [GlcNAc, N-acetylglucosamine]
M. smegmatis mutant 49
  MSH found in cells: No significant MSH
[2]
  Fold less active than GlcNAc-Ins as deacetylase substrate: 44 fold
  Relative Rate (deacetylase reaction): 0.023
  Deacetylase Specific Activity: 1.6 ± 1 nmol/min/mg

## OO [H2O2, hydrogen peroxide]
M. smegmatis strain 49 [3]
  Fold more sensitive to H2O2 than the parent strain: 12 fold
M. smegmatis strain 49 [4]
  IC50: 1000 µM
M. smegmatis mc^2155 [5]
  IC50: 12000 µM
M. smegmatis strain TN3
  Fold more sensitive to H2O2 than the parent strain: > 20 fold
M. smegmatis strain TN3; read-out: H2O2 IC50
  IC50: 500 µM
[6]
  IC50: 1800 µM
M. smegmatis strain I64
  Sensitivity to peroxide versus the parent strain: three-fold more sensitive
M. smegmatis strain I64; read-out: H2O2 IC50
  IC50: 3500 µM

## CC(=O)N[C@@H](CS)C(=O)N[C@H]1[C@@H](OC2[C@H](O)[C@H](O)C(O)[C@H](O)[C@H]2O)O[C@H](CO)[C@@H](O)[C@@H]1O (stereo partly drawn) [MSH, 1-D-myo-inosityl-2-(N-acetylcysteinyl)amido-2-deoxy-α-D-glucopyranoside]
[7]
  Relative Rate (amidase reaction): 0.0043
[7]; pH 7.4
  Amidase Specific Activity: 0.3 ± 0.1 nmol/min/mg
His-tagged MshB [8]
  Inhibition of the deacetylase activity: effective inhibitor
His-tagged MshB [9]
  Concentration that completely inhibits the amidase activity: over 1 mM
  Inhibition of the amidase activity: effective inhibitor
[2]
  Relative Rate (deacetylase reaction): <0.00036
  Substrate quality for the deacetylase activity: not substrates
  Deacetylase Specific Activity: <0.025 ± 0.012 nmol/min/mg

## N[C@H]1C(O)O[C@H](CO)[C@@H](O)[C@@H]1O (stereo partly shown) [glucosamine]
M. smegmatis mutant 49
  MSH found in cells: No significant MSH

## N[C@@H](CCC(=O)N[C@@H](CS)C(=O)NCC(=O)O)C(=O)O [glutathione]
His-tagged MshB [8]
  Inhibition of the deacetylase activity: lack of inhibition
His-tagged MshB [9]
  Inhibition of the amidase activity: lack of inhibition

## O[C@H]1[C@H](O)[C@@H](O)[C@H](O)[C@@H](O)[C@H]1O [inositol]
M. smegmatis mutant 49
  MSH found in cells: No significant MSH

## superoxide
M. smegmatis mutant TN3
  Killed by superoxide: > 90%
M. smegmatis mc^2155 [10]
  Killing by superoxide: no significant killing
[11]
  Killing by superoxide: intermediate level of killing
